These are literature values, as cited in patent US20130324521A1, “IMPLANT FOR TREATING OR PREVENTING AN ANEURYSM” (priority 2010, published 2013).

Molecules are shown by their SMILES.

Take `Cn1cncc1[C@@](N)(c1ccc(Cl)cc1)c1ccc2c(c1)c(-c1cccc(Cl)c1)cc(=O)n2C` [R11577, Tipifarnib]: where the note is “oral administration”, the “tolerability of oral administration” value is listed as “tolerated well”. The toxicity result (use as accredited therapeutic agent in oncological therapy) is “low toxicity”.
